Results on four compounds are retold here after patent EP3964211A1, “A COMPOSITION COMPRISING AN ASCORBYL PHOSPHATE, NIACINAMIDE AND ALLANTOIN FOR TREATING ACNE” (DSM IP Assets B.V., priority 2020, dated 2022).

The test relates to C. acnes (ATCC reference 11827). The test can be described thus: Cutibacterium acnes Time-Kill assay. Format: cell-based. How it is done:
Sodium ascorbyl phosphate, niacinamide, allantoin as well as a combination thereof were screened for their potential anti-microbial activities against C. acnes (ATCC reference 11827). The action of ingredients and combinations thereof is assessed through a miniaturized method performed in liquid media in 96 deepwell plates format. The inhibition of the growth of C. acnes is compared to the same strain growth in corresponding optimal media.
The different ingredients are mixed in growth medium (final volume 2mL) in deepwell plates (n=3). Analysis controls are prepared and used identically to samples : • A growth control of Cutibacterium acnes in the corresponding culture medium; • A growth control of Cutibacterium acnes with ethanol at 2,5 % (v/v) directly in the culture medium; • A growth control of microorganisms with olive oil at 5 % (v/v) directly in the culture medium; • A control consisting of Salicylic acid at 0.5% directly in the culture medium Then, samples are contaminated with C. acnes, inoculum at final concentration of 3,7 x10^5 cfu/mL, […]
To perform the counting, aliquots of the contaminated samples are serially diluted (decimal dilutions) in culture medium in 96-well plates with triphenyltetrazolium and incubated at 37°C ± 2,5°C during 48 h. After 48 h at the optimal growing conditions, the last dilution showing a pink color (triphenyltetrazolium) or turbidity indicates the contamination rate and allow the determination of the corresponding microbial population.

Where [1] appears, read: 2 h, read-out: Log-step reduction (2h).

Like-named read-outs stand apart in the source and are kept apart here.

As for `O=C1O[C@H]([C@@H](O)CO)C(O)=C1OP(=O)(O)O` [Sodium ascorbyl phosphate, sodium ascorbyl phosphate], for the setting “3 wt.-% in growth medium, 2h, compared to initial log/cfu of 5.6, n=3, read-out: Log-step reduction (2h)”, the log reduction at 3 % was 1.7.

Consider `O=C(O)c1ccccc1O` [Salicylic acid, reference compound], for which the log reduction at 0.5 % by setting is: under setting [1], 3; (2.5 h, read-out: log-step reduction of C. acnes) 3.

Take `NC(=O)c1cccnc1` [Niacinamide, pyridine-3-carboxamide]: under setting [1], the log reduction at 3 % stood at 0.7.

In the case of `NC(=O)NC1NC(=O)NC1=O` (centres unmarked) [Allantoin, 2,5-dioxo-4-imidazolidinyl urea], for the setting “0.5 wt.-% in growth medium, 2h, compared to initial log/cfu of 5.6, n=3, read-out: Log-step reduction (2h)”, the log reduction at 0.5 % was determined as 0.6.
